In patent US5753715A, “2-disubstituted cyclohexenyl and cyclohexyl antimicrobial agents” (Ortho Pharmaceutical Corporation, priority 1995, dated 1998):
Converted amounts (≈) assume the structure as drawn.

How the values were obtained:
[1] = tested on: S. epi oc2603; assay: MIC, microdilution broth method (NCCLS); assay type: cell-based; parameters: unit not given here; conditions: cation supplemented Mueller Hinton broth, 35° C., 16-20 hours
Description: (§1) The in vitro antimicrobial spectrum of the compounds of the present invention were determined by the microdilution broth method following the test method from the National Committee for […] (NCCLS ). The method is described in the NCCLS Document M7-A2, Vol. 10, No.8 "Methods for Dilution Antimicrobial Susceptibility Test for Bacteria that Grow Aerobically--Second Edition".
(§2) In this method two fold serial dilutions of drug in cation supplemented Mueller Hinton broth are added to wells in microdilution trays. The test organisms are prepared by adjusting the turbidity of actively growing broth cultures so that the final concentration of test organism after it is added to the wells is approximately 5×10^4 colony forming units per well delivered by the Steers replicating device.
(§3) Following inoculation of the microdilution trays, the trays are incubated at 35° C. for 16-20 hours and then read. […] The amount of growth in the wells containing the test compound is compared with the amount of growth in the growth-control wells used in each tray.

[2] = tested on: E. faecium oc2993; assay: MIC, microdilution broth method (NCCLS); assay type: cell-based; conditions: cation supplemented Mueller Hinton broth, 35° C., 16-20 hours; unit assumed
Description: as §1, §2, §3

[3] = tested on: A. niger 10578; assay: MIC, microdilution broth method (NCCLS); assay type: cell-based; conditions: cation supplemented Mueller Hinton broth, 35° C., 16-20 hours; unit assumed
Description: as §1, §2, §3

[4] = tested on: C. tropicalis; assay: MIC, microdilution broth method (NCCLS); assay type: cell-based; conditions: cation supplemented Mueller Hinton broth, 35° C., 16-20 hours; unit assumed
Description: as §1, §2, §3

[5] = tested on: E. faecalis oc3041; assay: MIC, microdilution broth method (NCCLS); assay type: cell-based; conditions: cation supplemented Mueller Hinton broth, 35° C., 16-20 hours; unit assumed
Description: as §1, §2, §3

[6] = tested on: S. aureus ATCC 29213; assay: MIC, microdilution broth method (NCCLS); assay type: cell-based; conditions: cation supplemented Mueller Hinton broth, 35° C., 16-20 hours; unit assumed
Description: as §1, §2, §3

[7] = tested on: Ps. aerug. oc27853; assay: MIC, microdilution broth method (NCCLS); assay type: cell-based; conditions: cation supplemented Mueller Hinton broth, 35° C., 16-20 hours; unit assumed
Description: as §1, §2, §3

[8] = tested on: E. coli oc2605; assay: MIC, microdilution broth method (NCCLS); assay type: cell-based; conditions: cation supplemented Mueller Hinton broth, 35° C., 16-20 hours; unit assumed
Description: as §1, §2, §3

[9] = tested on: K. pneum. oc1943; assay: MIC, microdilution broth method (NCCLS); assay type: cell-based; conditions: cation supplemented Mueller Hinton broth, 35° C., 16-20 hours; unit assumed
Description: as §1, §2, §3

[10] = tested on: C. albicans 10231; assay: MIC, microdilution broth method (NCCLS); assay type: cell-based; conditions: cation supplemented Mueller Hinton broth, 35° C., 16-20 hours; unit assumed
Description: as §1, §2, §3

[11] = tested on: Ps. aerug. oc161; assay: MIC, microdilution broth method (NCCLS); assay type: cell-based; conditions: cation supplemented Mueller Hinton broth, 35° C., 16-20 hours; unit assumed
Description: as §1, §2, §3

[12] = tested on: E. coli oc2530; assay: MIC, microdilution broth method (NCCLS); assay type: cell-based; conditions: cation supplemented Mueller Hinton broth, 35° C., 16-20 hours; unit assumed
Description: as §1, §2, §3

[13] = tested on: E. faecalis ACTCC 29212; assay: MIC, microdilution broth method (NCCLS); assay type: cell-based; conditions: cation supplemented Mueller Hinton broth, 35° C., 16-20 hours; unit assumed
Description: as §1, §2, §3

[14] = tested on: MRSA oc667; assay: MIC, microdilution broth method (NCCLS); assay type: cell-based; conditions: cation supplemented Mueller Hinton broth, 35° C., 16-20 hours; unit assumed
Description: as §1, §2, §3

[15] = tested on: MRSA oc2089; assay: MIC, microdilution broth method (NCCLS); assay type: cell-based; conditions: cation supplemented Mueller Hinton broth, 35° C., 16-20 hours; unit assumed
Description: as §1, §2, §3

[16] = biological target: T1, Kinase A and SpoOF (Bacillus subtilis, UniProt P16497); assay: Autophosphorylation of Kinase A and Transphosphorylation of SPoOF Assay; assay type: biochemical; conditions: inhibition of Kinase A autophosphorylation / SpoOF transphosphorylation, [32P]ATP, gel, phosphoimager
T1 sequence (P16497 1-606): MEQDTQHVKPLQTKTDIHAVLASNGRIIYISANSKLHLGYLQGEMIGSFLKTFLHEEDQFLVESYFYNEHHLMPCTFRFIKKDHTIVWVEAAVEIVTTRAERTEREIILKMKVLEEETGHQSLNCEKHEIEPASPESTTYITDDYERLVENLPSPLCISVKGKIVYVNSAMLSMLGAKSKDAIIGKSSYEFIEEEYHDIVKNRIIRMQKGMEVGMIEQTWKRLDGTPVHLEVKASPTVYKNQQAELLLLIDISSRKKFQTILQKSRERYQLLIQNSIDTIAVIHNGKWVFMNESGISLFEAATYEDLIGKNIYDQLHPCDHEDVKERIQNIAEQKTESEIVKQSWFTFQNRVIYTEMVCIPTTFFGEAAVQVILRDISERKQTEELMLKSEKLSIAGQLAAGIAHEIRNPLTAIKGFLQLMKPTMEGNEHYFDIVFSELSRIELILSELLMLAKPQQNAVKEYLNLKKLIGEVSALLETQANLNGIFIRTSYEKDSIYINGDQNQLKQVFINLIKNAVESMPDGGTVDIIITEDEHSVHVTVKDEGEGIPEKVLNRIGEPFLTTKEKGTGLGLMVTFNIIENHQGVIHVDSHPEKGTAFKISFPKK

SMILES: Clc1ccc(CC2(CCOc3ccc(CCNCCN4CCCC4)cc3)C=CCCC2)cc1 (stereo not shown) [Compound 34]
- MIC S. epi oc2603 [1]: 4
- MIC E. faecium oc2993 [2]: 4 µg/mL (≈ 8.56 µM)
- MIC A. niger 10578 [3]: 8 µg/mL (≈ 17.1 µM)
- MIC C. tropicalis [4]: ≤ 4 µg/mL
- MIC E. faecalis oc3041 [5]: 4 µg/mL (≈ 8.56 µM)
- MIC S. aureus ATCC 29213 [6]: 4 µg/mL (≈ 8.56 µM)
- MIC Ps. aerug. oc27853 [7]: > 64 µg/mL
- MIC E. coli oc2605 [8]: 8 µg/mL (≈ 17.1 µM)
- MIC K. pneum. oc1943 [9]: 32 µg/mL (≈ 68.5 µM)
- MIC C. albicans 10231 [10]: 8 µg/mL (≈ 17.1 µM)
- MIC Ps. aerug. oc161 [11]: > 64 µg/mL
- MIC E. coli oc2530 [12]: 4 µg/mL (≈ 8.56 µM)
- MIC E. faecalis ACTCC 29212 [13]: 4 µg/mL (≈ 8.56 µM)
- MIC MRSA oc667 [14]: 4 µg/mL (≈ 8.56 µM)
- MIC MRSA oc2089 [15]: 4 µg/mL (≈ 8.56 µM)
- IC50 [16]: 295 mM
- IC min [16]: 125 mM

SMILES: COc1ccc(CC2(CCOc3ccc(CCN)cc3)C=CCCC2)cc1 (stereo not shown) [Compound 41]
- MIC S. epi oc2603 [1]: 8
- MIC E. faecium oc2993 [2]: 8 µg/mL (≈ 21.9 µM)
- MIC A. niger 10578 [3]: 2 µg/mL (≈ 5.47 µM)
- MIC C. tropicalis [4]: 4 µg/mL (≈ 10.9 µM)
- MIC E. faecalis oc3041 [5]: 8 µg/mL (≈ 21.9 µM)
- MIC S. aureus ATCC 29213 [6]: 8 µg/mL (≈ 21.9 µM)
- MIC Ps. aerug. oc27853 [7]: > 128 µg/mL
- MIC E. coli oc2605 [8]: > 64 µg/mL
- MIC K. pneum. oc1943 [9]: > 128 µg/mL
- MIC C. albicans 10231 [10]: 8 µg/mL (≈ 21.9 µM)
- MIC Ps. aerug. oc161 [11]: > 128 µg/mL
- MIC E. coli oc2530 [12]: 4 µg/mL (≈ 10.9 µM)
- MIC E. faecalis ACTCC 29212 [13]: 8 µg/mL (≈ 21.9 µM)
- MIC MRSA oc667 [14]: 8 µg/mL (≈ 21.9 µM)
- MIC MRSA oc2089 [15]: 8 µg/mL (≈ 21.9 µM)
- IC50 [16]: 82.5 mM
- IC min [16]: 31.25 mM

SMILES: NCCCc1cnc(NCCC2(Cc3ccccc3)C=CCCC2)nc1 (stereo not shown) [Compound 49]
- MIC S. epi oc2603 [1]: 16
- MIC E. faecium oc2993 [2]: 32 µg/mL (≈ 91.3 µM)
- MIC A. niger 10578 [3]: 16 µg/mL (≈ 45.6 µM)
- MIC C. tropicalis [4]: 16 µg/mL (≈ 45.6 µM)
- MIC E. faecalis oc3041 [5]: 32 µg/mL (≈ 91.3 µM)
- MIC S. aureus ATCC 29213 [6]: 64 µg/mL (≈ 183 µM)
- MIC Ps. aerug. oc27853 [7]: 128 µg/mL (≈ 365 µM)
- MIC E. coli oc2605 [8]: 128 µg/mL (≈ 365 µM)
- MIC K. pneum. oc1943 [9]: 128 µg/mL (≈ 365 µM)
- MIC C. albicans 10231 [10]: 32 µg/mL (≈ 91.3 µM)
- MIC Ps. aerug. oc161 [11]: 128 µg/mL (≈ 365 µM)
- MIC E. coli oc2530 [12]: 16 µg/mL (≈ 45.6 µM)
- MIC E. faecalis ACTCC 29212 [13]: 32 µg/mL (≈ 91.3 µM)
- MIC MRSA oc667 [14]: 32 µg/mL (≈ 91.3 µM)
- MIC MRSA oc2089 [15]: 32 µg/mL (≈ 91.3 µM)
- IC50 [16]: 162 mM

SMILES: COc1ccc(CC2(CCOc3ccc(CCCNC(=N)N)cc3)C=CCCC2)cc1 (stereo not shown) [Compound 53]
- MIC S. epi oc2603 [1]: 8
- MIC E. faecium oc2993 [2]: 8 µg/mL (≈ 19 µM)
- MIC A. niger 10578 [3]: 8 µg/mL (≈ 19 µM)
- MIC C. tropicalis [4]: 2 µg/mL (≈ 4.74 µM)
- MIC E. faecalis oc3041 [5]: 8 µg/mL (≈ 19 µM)
- MIC S. aureus ATCC 29213 [6]: 4 µg/mL (≈ 9.49 µM)
- MIC Ps. aerug. oc27853 [7]: > 128 µg/mL
- MIC E. coli oc2605 [8]: > 64 µg/mL
- MIC K. pneum. oc1943 [9]: > 128 µg/mL
- MIC C. albicans 10231 [10]: 4 µg/mL (≈ 9.49 µM)
- MIC Ps. aerug. oc161 [11]: > 128 µg/mL
- MIC E. coli oc2530 [12]: 16 µg/mL (≈ 38 µM)
- MIC E. faecalis ACTCC 29212 [13]: 4 µg/mL (≈ 9.49 µM)
- MIC MRSA oc667 [14]: 8 µg/mL (≈ 19 µM)
- MIC MRSA oc2089 [15]: 4 µg/mL (≈ 9.49 µM)
- IC50 [16]: 113 mM

SMILES: NCCc1ccc(OCCC2(Cc3cc(Cl)cc(Cl)c3)C=CCCC2)cc1 (stereo not shown) [Compound 59]
- MIC S. epi oc2603 [1]: 8
- MIC E. faecium oc2993 [2]: 8 µg/mL (≈ 19.8 µM)
- MIC A. niger 10578 [3]: 44 µg/mL (≈ 109 µM)
- MIC C. tropicalis [4]: 8 µg/mL (≈ 19.8 µM)
- MIC E. faecalis oc3041 [5]: 8 µg/mL (≈ 19.8 µM)
- MIC S. aureus ATCC 29213 [6]: 8 µg/mL (≈ 19.8 µM)
- MIC Ps. aerug. oc27853 [7]: > 128 µg/mL
- MIC E. coli oc2605 [8]: ≥ 64 µg/mL
- MIC K. pneum. oc1943 [9]: > 128 µg/mL
- MIC C. albicans 10231 [10]: 8 µg/mL (≈ 19.8 µM)
- MIC Ps. aerug. oc161 [11]: > 128 µg/mL
- MIC E. coli oc2530 [12]: 16 µg/mL (≈ 39.6 µM)
- MIC E. faecalis ACTCC 29212 [13]: 8 µg/mL (≈ 19.8 µM)
- MIC MRSA oc667 [14]: 8 µg/mL (≈ 19.8 µM)
- MIC MRSA oc2089 [15]: 8 µg/mL (≈ 19.8 µM)
- IC50 [16]: 46.1 mM
